Experimental data reported in US20220169654A1, “New Organic Compounds” (Servier Pharmaceuticals LLC, priority 2020, published 2022).

Experiments:
HCT116 MTAP−/− = test: Inhibition of cellular proliferation, 4 days, Cell Titer Glo, HCT116 MTAP−/−; format: cell-based; settings: Homo sapiens, HCT-116, 96 h, IC50 bin with Max Inh., read-out: 4 Day Relative Growth Inhibition (MTAP −/−)
Outline: (§1)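 Isogenic HCT116 pair differing only in MTAP status, plated 24 h before treatment with 10-point 3-fold dilutions; 4 days at 37° C./5% CO2. Cell Titer Glo luminescence, blank-subtracted and normalised to 0.2% DMSO control, gives percentage proliferation vs log molar concentration for IC50.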

HCT116 MTAP+/+ = test: Inhibition of cellular proliferation, 4 days, Cell Titer Glo, HCT116 MTAP+/+; format: cell-based; settings: Homo sapiens, HCT-116, 96 h, IC50 bin with Max Inh., read-out: 4 Day Relative Growth Inhibition (MTAP +/+)
Outline: as §1

[1] = system: SAM in HCT116 human colon carcinoma cell line with MTAP gene deleted (MTAP −/−); test: Cellular assay of target engagement (SAM), LC-MS/MS, 72 hrs; format: cell-based; settings: HCT-116, IC50 bin with Max Inh., read-out: Cell 72 h SAM Inhibition (MTAP −/−)
Outline: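 MTAP-deleted HCT116 cells plated 24 h, then given 10-point 3-fold dilutions for 72 hrs at 37° C. Intracellular SAM extracted in cold 80% methanol with 1M acetic acid and d3-SAM standard, quantified by LC-MS/MS (MRM m/z 399.2→250.1); IC50 derived.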

MAT2A homodimer = molecular target: T1, MAT2A homodimer (Homo sapiens, UniProt P31153); test: MAT2A inhibition (biochemical, liberated phosphate, PiColorLock Gold); settings: recombinant MAT2A homodimer; IC50 bin with Max Inh.; read-out: Enzyme Inhibition Bin
T1 construct: inferred from Ni sepharose purification with imidazole elution; made in house; host or cells: Sf9 insect cells, baculovirus (Bac to Bac, pFASTBAC1)
T1 sequence (P31153 whole entry): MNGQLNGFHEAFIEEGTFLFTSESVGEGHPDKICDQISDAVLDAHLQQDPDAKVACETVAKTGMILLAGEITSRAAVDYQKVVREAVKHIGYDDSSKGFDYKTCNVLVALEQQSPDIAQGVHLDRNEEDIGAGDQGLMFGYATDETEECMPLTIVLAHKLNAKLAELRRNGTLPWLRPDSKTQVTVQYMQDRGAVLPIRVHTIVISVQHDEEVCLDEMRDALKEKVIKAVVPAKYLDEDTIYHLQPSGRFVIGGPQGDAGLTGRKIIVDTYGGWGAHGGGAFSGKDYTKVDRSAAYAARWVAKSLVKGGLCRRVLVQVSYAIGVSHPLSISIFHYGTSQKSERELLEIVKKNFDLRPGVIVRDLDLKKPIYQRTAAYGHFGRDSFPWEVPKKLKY
Outline: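 Baculovirus/Sf9-expressed, Ni-purified MAT2A (4 μg/mL) preincubated with compound 60 min at 25 °C in Tris pH 8.0/KCl/MgCl2 buffer. Reaction started with 500 μM ATP and 400 μM L-methionine (substrate-mix concentrations), run 60 min at 25 °C. Phosphate measured colorimetrically against a phosphate standard curve to give IC50.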

| Compound | IC50 (HCT116 MTAP−/−) | IC50 (HCT116 MTAP+/+) | IC50 [1] | IC50 (MAT2A homodimer) |
| --- | --- | --- | --- | --- |
| Cn1cc2cc(-n3nc4c(C(N)=O)cn(CC5CC5)c4c(-c4ccc(C5CC5)nc4)c3=O)ccc2n1 [Example 165, 5-(cyclopropylmethyl)-4-(6-cyclopropylpyridin-3-yl)-2-(2-methyl-2H-indazol-5-yl)-3-oxo-3,5-dihydro-2H-pyrrolo[3,2-c]pyridazine-7-carboxamide] | < 100 nM | 100 to 1000 nM | < 100 nM | < 100 nM |
| Cn1cc2cc(-n3nc4c(C(N)=O)cn(CC5CC5)c4c(-c4ccc(C5CC5)cc4)c3=O)ccc2n1 [Example 166, 5-(cyclopropylmethyl)-4-(4-cyclopropylphenyl)-2-(2-methyl-2H-indazol-5-yl)-3-oxo-3,5-dihydro-2H-pyrrolo[3,2-c]pyridazine-7-carboxamide] | < 100 nM | > 1000 nM | < 100 nM | < 100 nM |
| CNC(=O)c1cn(CC2CC2)c2c(-c3ccc(C4CC4)cc3)c(=O)n(-c3ccc4nn(C)cc4c3)nc12 [Example 167, 5-(cyclopropylmethyl)-4-(4-cyclopropylphenyl)-N-methyl-2-(2-methyl-2H-indazol-5-yl)-3-oxo-3,5-dihydro-2H-pyrrolo[3,2-c]pyridazine-7-carboxamide] | < 100 nM | < 100 nM | < 100 nM | < 100 nM |
| Cn1cc2cc(-n3nc4c(C(N)=O)cn(CC5CC5)c4c(-c4ccc(OC(F)F)cc4)c3=O)ccc2n1 [Example 168, 5-(cyclopropylmethyl)-4-(4-(difluoromethoxy)phenyl)-2-(2-methyl-2H-indazol-5-yl)-3-oxo-3,5-dihydro-2H-pyrrolo[3,2-c]pyridazine-7-carboxamide] | < 100 nM | > 1000 nM | < 100 nM | < 100 nM |
| CNC(=O)c1cn(CC2CC2)c2c(-c3ccc(OC(F)F)cc3)c(=O)n(-c3ccc4nn(C)cc4c3)nc12 [Example 169, 5-(cyclopropylmethyl)-4-(4-(difluoromethoxy)phenyl)-N-methyl-2-(2-methyl-2H-indazol-5-yl)-3-oxo-3,5-dihydro-2H-pyrrolo[3,2-c]pyridazine-7-carboxamide] | < 100 nM | 100 to 1000 nM | < 100 nM | < 100 nM |
| Cn1cc2cc(-n3nc4c(C(N)=O)cn(CC5CC5)c4c(-c4ccc(Cl)cc4)c3=O)ccc2n1 [Example 170, 4-(4-chlorophenyl)-5-(cyclopropylmethyl)-2-(2-methyl-2H-indazol-5-yl)-3-oxo-3,5-dihydro-2H-pyrrolo[3,2-c]pyridazine-7-carboxamide] | < 100 nM | > 1000 nM | < 100 nM | < 100 nM |
| CNC(=O)c1cn(CC2CC2)c2c(-c3ccc(Cl)cc3)c(=O)n(-c3ccc4nn(C)cc4c3)nc12 [Example 171, 4-(4-chlorophenyl)-5-(cyclopropylmethyl)-N-methyl-2-(2-methyl-2H-indazol-5-yl)-3-oxo-3,5-dihydro-2H-pyrrolo[3,2-c]pyridazine-7-carboxamide] | < 100 nM | < 100 nM | < 100 nM | < 100 nM |
| [2H]C([2H])([2H])n1cc2cc(-n3nc4c(C(=O)NC)cn(CC5CC5)c4c(-c4ccc(C5CC5)nc4)c3=O)ccc2n1 [Example 172, 5-(cyclopropylmethyl)-4-(6-cyclopropylpyridin-3-yl)-N-methyl-2-(2-(methyl-d3)-2H-indazol-5-yl)-3-oxo-3,5-dihydro-2H-pyrrolo[3,2-c]pyridazine-7-carboxamide] | < 100 nM | > 1000 nM | < 100 nM | < 100 nM |
| [2H]C([2H])([2H])Oc1ccc(-c2c(=O)n(-c3ccc4nn(C)cc4c3)nc3c(C(N)=O)cn(CC4CC4)c23)cc1 [Example 173, 5-(cyclopropylmethyl)-4-(4-(methoxy-d3)phenyl)-2-(2-methyl-2H-indazol-5-yl)-3-oxo-3,5-dihydro-2H-pyrrolo[3,2-c]pyridazine-7-carboxamide] | < 100 nM | > 1000 nM | < 100 nM | < 100 nM |
| [2H]C([2H])([2H])Oc1ccc(-c2c(=O)n(-c3ccc4nn(C)cc4c3)nc3c(C(=O)NC)cn(CC4CC4)c23)cc1 [Example 174, 5-(cyclopropylmethyl)-4-(4-(methoxy-d3)phenyl)-N-methyl-2-(2-methyl-2H-indazol-5-yl)-3-oxo-3,5-dihydro-2H-pyrrolo[3,2-c]pyridazine-7-carboxamide] | < 100 nM | 100 to 1000 nM | < 100 nM | < 100 nM |
| Cc1ccc(-c2c(=O)n(-c3ccc4nn(C)cc4c3)nc3c(C(N)=O)cn(CC4CC4)c23)cn1 [Example 175, 5-(cyclopropylmethyl)-2-(2-methyl-2H-indazol-5-yl)-4-(6-methylpyridin-3-yl)-3-oxo-3,5-dihydro-2H-pyrrolo[3,2-c]pyridazine-7-carboxamide] | 100 to 1000 nM | > 1000 nM | 100 to 1000 nM | < 100 nM |
| CNC(=O)c1cn(CC2CC2)c2c(-c3ccc(OC)cc3)c(=O)n(-c3ccc4nn(C)cc4c3)nc12 [Example 176, 5-(cyclopropylmethyl)-4-(4-methoxyphenyl)-N-methyl-2-(2-methyl-2H-indazol-5-yl)-3-oxo-3,5-dihydro-2H-pyrrolo[3,2-c]pyridazine-7-carboxamide] | < 100 nM | 100 to 1000 nM | < 100 nM | < 100 nM |
| CNC(=O)c1cn(CC2CC2)c2c(-c3ccc(C)nc3)c(=O)n(-c3ccc4nn(C)cc4c3)nc12 [Example 177, 5-(cyclopropylmethyl)-N-methyl-2-(2-methyl-2H-indazol-5-yl)-4-(6-methylpyridin-3-yl)-3-oxo-3,5-dihydro-2H-pyrrolo[3,2-c]pyridazine-7-carboxamide] | 100 to 1000 nM | > 1000 nM | < 100 nM | < 100 nM |
| CN(C)S(=O)(=O)c1cn(CC2CC2)c2c(-c3ccc(C4CC4)nc3)c(=O)n(-c3ccc4nn(C)cc4c3)nc12 [Example 178, 5-(cyclopropylmethyl)-4-(6-cyclopropylpyridin-3-yl)-N,N-dimethyl-2-(2-methyl-2H-indazol-5-yl)-3-oxo-3,5-dihydro-2H-pyrrolo[3,2-c]pyridazine-7-sulfonamide] | > 1000 nM | > 1000 nM | > 1000 nM | 100 to 1000 nM |
| Cn1cc2cc(-n3nc4c(S(N)(=O)=O)cn(CC5CC5)c4c(-c4ccc(C5CC5)cc4)c3=O)ccc2n1 [Example 180, 5-(cyclopropylmethyl)-4-(4-cyclopropylphenyl)-2-(2-methyl-2H-indazol-5-yl)-3-oxo-3,5-dihydro-2H-pyrrolo[3,2-c]pyridazine-7-sulfonamide] | < 100 nM | > 1000 nM | < 100 nM | < 100 nM |
| Cn1cc2cc(-n3nc4c(S(N)(=O)=O)cn(CC5CC5)c4c(-c4ccc(OC(F)F)cc4)c3=O)ccc2n1 [Example 184, 5-(cyclopropylmethyl)-4-(4-(difluoromethoxy)phenyl)-2-(2-methyl-2H-indazol-5-yl)-3-oxo-3,5-dihydro-2H-pyrrolo[3,2-c]pyridazine-7-sulfonamide] | 100 to 1000 nM | > 1000 nM | < 100 nM | < 100 nM |
